The results in this text go back to US11498903B2 (BRISTOL-MYERS SQUIBB COMPANY, priority 2017, dated 2022).

Read-outs that look alike come from different tables or passages of the source.

The assay addresses T1, human APJ receptor (Homo sapiens, UniProt P35414).
T1 construct: expressed in transfected cells
T1 sequence (P35414 1-380): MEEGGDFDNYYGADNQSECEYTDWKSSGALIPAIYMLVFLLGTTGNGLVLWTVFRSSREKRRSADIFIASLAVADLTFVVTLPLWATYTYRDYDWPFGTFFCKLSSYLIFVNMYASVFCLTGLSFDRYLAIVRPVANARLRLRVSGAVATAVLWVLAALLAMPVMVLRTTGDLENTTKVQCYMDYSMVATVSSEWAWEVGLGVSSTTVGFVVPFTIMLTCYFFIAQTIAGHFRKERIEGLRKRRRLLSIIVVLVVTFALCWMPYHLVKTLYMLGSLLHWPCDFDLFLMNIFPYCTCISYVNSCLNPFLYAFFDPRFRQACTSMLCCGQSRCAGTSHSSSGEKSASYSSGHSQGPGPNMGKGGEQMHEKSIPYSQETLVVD
In words: Intracellular cAMP accumulation assay (APJ hcAMP, HTRF). Format: cell-based. The method in brief:
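HEK293 cells stably expressing human APJ, 5,000/well, incubated 30 min at room temperature with compound plus […] and 2 μM forskolin. cAMP read by HTRF against a cAMP standard curve; EC50 from variable-slope sigmoidal fit, Ymax as % of (Pyr1)apelin-13 inhibition.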
For orientation: Cyclic AMP is a second messenger, typically raised through Gs and lowered through Gi signalling.

Where [1] appears, read: Table 1, HEK293 cells stably expressing human APJ receptor, inhibition of forskolin-mediated cAMP production, read-out: APJ hcAMP EC50.
Setting [2] is: human APJ, cAMP, potency range class, read-out: APJ cAMP Human EC50.

Turning to `CCC[C@H](NC(=O)c1ccc(-c2c(Cl)cccc2-c2nc3ccccc3[nH]2)c(C(=O)O)c1)c1cccnc1` [Example 190, (S)-2′-(1H-1,3-benzodiazol-2-yl)-6′-chloro-4-{[1-(pyridin-3-yl)butyl]carbamoyl}[1,1′-biphenyl]-2-carboxylic acid], the EC50 under setting [1] was in the range of 10 to 100 nM and the EC50 under setting [2] is 10 to 100 nM.

With `CCC[C@H](NC(=O)c1ccc(-c2c(Cl)cccc2-c2nc3ccccc3[nH]2)c(C(=O)O)c1)c1cccnc1` [Example 193, (S)-2′-(1H-1,3-benzodiazol-2-yl)-6′-chloro-4-{[1-(pyridin-3-yl)butyl]carbamoyl}-[1,1′-biphenyl]-2-carboxylic acid], under setting [1], the EC50 lay in the range of 10 to 100 nM.

As to `CCCC(NC(=O)c1ccc(-c2c(Cl)cccc2-c2nc3ccccc3[nH]2)c(C(=O)O)c1)c1cncs1` [Example 194, (S)-2′-(1H-1,3-benzodiazol-2-yl)-6′-chloro-4-{[1-(1,3-thiazol-5-yl)butyl]carbamoyl}-[1,1′-biphenyl]-2-carboxylic acid], the EC50 is, setting by setting: under setting [1], 10 to 100 nM; under setting [2], 10 to 100 nM.

`CCC[C@H](NC(=O)c1ccc(-c2c(Cl)cccc2-c2nc3cc(Cl)c(F)cc3[nH]2)c(C(=O)O)c1)C1CCCCCC1` [Example 202, (S)-2′-chloro-6′-(5-chloro-6-fluoro-1H-1,3-benzodiazol-2-yl)-4-[(1-cycloheptylbutyl)carbamoyl]-[1,1′-biphenyl]-2-carboxylic acid]: the EC50 by setting is: under setting [1], < 10 nM; under setting [2], < 10 nM.

Regarding `CCCC(NC(=O)c1ccc(-c2cc(Cl)ccc2-c2nc3cc(C(C)(C)C)ccc3[nH]2)c(C(=O)OC)c1)c1ccccc1OC` (centres unmarked) [Example 203, methyl 2′-(5-tert-butyl-1H-1,3-benzodiazol-2-yl)-5′-chloro-4-{[1-(2-methoxyphenyl)butyl]carbamoyl}-[1,1′-biphenyl]-2-carboxylate], the EC50 was 10 to 100 nM under setting [1] and 10 to 100 nM under setting [2].

As to `COc1cc2nc(-c3cccc(Cl)c3-c3ccc(C(=O)NC(c4ccc(Cl)cc4)C4CC4)cc3C(=O)NS(C)(=O)=O)[nH]c2cc1F` (centres unmarked) [Example 206, 2′-chloro-N4-[(4-chlorophenyl)(cyclopropyl)methyl]-6′-(6-fluoro-5-methoxy-1H-1,3-benzodiazol-2-yl)-N2-methanesulfonyl-[1,1′-biphenyl]-2,4-dicarboxamide], the EC50 fell in the range of 10 to 100 nM under setting [1] and 10 to 100 nM under setting [2].

`CCCC(NC(=O)c1ccc(-c2cc(Cl)ccc2-c2nc3ccccc3[nH]2)c(C(=O)O)c1)c1ccccc1OC` (centres unmarked) [Example 207, 2′-(1H-1,3-benzodiazol-2-yl)-5′-chloro-4-{[1-(2-methoxyphenyl)butyl]carbamoyl}-[1,1′-biphenyl]-2-carboxylic acid]: the EC50 is, setting by setting: under setting [1], < 10 nM; under setting [2], < 10 nM.

Regarding `CCCC(NC(=O)c1ccc(-c2cc(Cl)ccc2-c2nc3ccccc3[nH]2)c(C(=O)O)c1)c1ccccc1OC` (centres unmarked) [Example 208, 2′-(1H-1,3-benzodiazol-2-yl)-5′-chloro-4-{[1-(2-methoxyphenyl)butyl]carbamoyl}-[1,1′-biphenyl]-2-carboxylic acid], the EC50 under setting [1] was < 10 nM.

Consider `O=C(NC(CC1CCOCC1)c1ccccc1)c1ccc(-c2cc(Cl)ccc2-c2nc3ccccc3[nH]2)c(C(=O)O)c1` (centres unmarked) [Example 216, 2′-(1H-1,3-benzodiazol-2-yl)-5′-chloro-4-{[2-(oxan-4-yl)-1-phenylethyl]carbamoyl}-[1,1′-biphenyl]-2-carboxylic acid], for which the EC50 was in the range of 101 to 500 nM under setting [1] and 101 to 500 nM under setting [2].

With `O=C(NC(CC1CCOCC1)c1ccccc1)c1ccc(-c2cc(Cl)ccc2-c2nc3ccccc3[nH]2)c(C(=O)O)c1` (centres unmarked) [Example 217, 2′-(1H-1,3-benzodiazol-2-yl)-5′-chloro-4-{[2-(oxan-4-yl)-1-phenylethyl]carbamoyl}-[1,1′-biphenyl]-2-carboxylic acid], the EC50 under setting [1] is 101 to 500 nM.

Turning to `CCCC(NC(=O)c1ccc(-c2cc(Cl)ccc2-c2nc3cc(OC)ccc3[nH]2)c(C(=O)O)c1)c1ccccc1OC` (centres unmarked) [Example 218, 5′-chloro-2′-(5-methoxy-1H-1,3-benzodiazol-2-yl)-4-{[1-(2-methoxyphenyl)butyl]carbamoyl}-[1,1′-biphenyl]-2-carboxylic acid], the EC50 runs as follows: under setting [1], < 10 nM; under setting [2], < 10 nM.

As to `O=C(N[C@H](c1ccc(F)cc1)C1CC1)c1ccc(-c2c(Cl)cccc2-c2nc3ccccc3[nH]2)c(C(=O)O)c1` [Example 219, (S)-2′-(1H-1,3-benzodiazol-2-yl)-6′-chloro-4-{[cyclopropyl(4-fluorophenyl)methyl]carbamoyl}-[1,1′-biphenyl]-2-carboxylic acid], the EC50 by setting is: under setting [1], < 10 nM; under setting [2], < 10 nM.

Take `CCCC(NC(=O)c1ccc(-c2c(Cl)cccc2-c2nc3ccccc3[nH]2)c(C(=O)O)c1)c1ccccc1OC` [Example 225, (S)-2′-(1H-1,3-benzodiazol-2-yl)-6′-chloro-4-{[1-(2-methoxyphenyl)butyl]carbamoyl}-[1,1′-biphenyl]-2-carboxylic acid]: the EC50 reads like this: under setting [1], < 10 nM; under setting [2], < 10 nM.

In the case of `O=C(N[C@@H](CCC(F)(F)F)c1ccccc1)c1ccc(-c2c(Cl)cccc2-c2nc3ccccc3[nH]2)c(C(=O)O)c1` [Example 226, (S)-2′-(1H-1,3-benzodiazol-2-yl)-6′-chloro-4-[(4,4,4-trifluoro-1-phenylbutyl)carbamoyl]-[1,1′-biphenyl]-2-carboxylic acid], the EC50 runs as follows: under setting [1], < 10 nM; under setting [2], < 10 nM.

Regarding `COC[C@@H](NC(=O)c1ccc(-c2c(Cl)cccc2-c2nc3ccccc3[nH]2)c(C(=O)O)c1)C1CC1` [Example 230, (S)-2′-(1H-1,3-benzodiazol-2-yl)-6′-chloro-4-[(1-cyclopropyl-2-methoxyethyl)carbamoyl]-[1,1′-biphenyl]-2-carboxylic acid], the EC50 was in the range of 101 to 500 nM under setting [1] and 101 to 500 nM under setting [2].

Turning to `COc1cc2nc(-c3cccc(Cl)c3-c3ccc(C(=O)N[C@H](c4ccc(F)cc4)C4CC4)cc3C(=O)O)[nH]c2cc1F` [Example 232, (S)-2′-chloro-4-{[cyclopropyl(4-fluorophenyl)methyl]carbamoyl}-6′-(6-fluoro-5-methoxy-1H-1,3-benzodiazol-2-yl)-[1,1′-biphenyl]-2-carboxylic acid], the EC50 by setting is: under setting [1], < 10 nM; under setting [2], < 10 nM.

As to `CCCC(NC(=O)c1ccc(-c2cc(Cl)ccc2-c2nc3cc(C(C)(C)C)ccc3[nH]2)c(C(=O)O)c1)c1ccccc1OC` (centres unmarked) [Example 241, 2′-(5-tert-butyl-1H-1,3-benzodiazol-2-yl)-5′-chloro-4-{[1-(2-methoxyphenyl)butyl]carbamoyl}-[1,1′-biphenyl]-2-carboxylic acid], the EC50 was < 10 nM under setting [1] and < 10 nM under setting [2].

Regarding “(S)-2′-chloro-4-{[(1R)-1-cyclohexylbutyl]carbamoyl}-6′-(6-fluoro-5-methoxy-1H-1,3-benzodiazol-2-yl)-[1,1′-biphenyl]-2-carboxylic acid [Example 160]”, the EC50 is, setting by setting: under setting [1], < 10 nM; under setting [2], < 10 nM.

As for “(S)-2′-chloro-6′-(5- chloro-6-methyl-1H- 1,3-benzodiazol-2- yl)-4-{[(1R)-1- phenylbutyl] carbamoyl}- [1,1′-biphenyl]-2- carboxylic acid [Example 91]”, the EC50 runs as follows: under setting [1], < 10 nM; (Table 3, HEK293 cells stably expressing human APJ receptor, read-out: APJ cAMP Human EC50) < 10 nM.

What is called EC50 is the concentration needed to bring the measured effect to its halfway point.
